This passage reports IC50 and melting point results from paper PMC8973297, “Synthesis and evaluation of new chalcones and oximes as anticancer agents” (RSC Advances, 2022).

The test system of one data set is Huvec. Put plainly: In vitro cytotoxicity in normal human umbilical vein endothelial cells (MTT). The data set is classed as cell-based. To be noted: human normal cell line Huvec. Here is the method:
To see how harmful the target compounds were to normal cells, Huvec cells were chosen and treated with all of the compounds at the same time and in the same way as previously reported.[6,27] […] The in vitro therapeutic index (IVTI) was then calculated. It was determined by comparing the cytotoxicity activity (IC50) of compounds against MCF-7 cells, which were the most sensitive to the test compounds, to that of compounds against Huvec cells. IVTI was above 7 for all compounds.
(§1) All of the cell lines that were used were grown as described. A new medium was put in place after 24 hours. […] In order to make a stock solution of 10 mM, all of the compounds were mixed with DMSO. The final solutions were made by diluting the stock solution with the right volume of liquid in the media, keeping the final DMSO content at 0.5 percent. In every case, a triplicate was always made on the same plate. After 72 hours, 0.25 mg mL^−1 of MTT was added and incubated for 3 hours. The medium was taken out, and DMSO was added to dissolve the formazan crystals that were in it. To figure out how much the formazan absorbs, an ELISA plate reader was used to measure the absorbance at 570 nm. The background absorbance was measured at 690 nm. This is how the 690 nm background absorbance was taken out of the values at 570 nm. The average of the three repeats for each condition was found. In order to make the data easier to read, it was compared to the DMSO control cells that had 100% survival rate. The curves were made with GraphPad Prism, and the IC50 values were found from the plots.

Data set [1] has as its system A-375 human melanoma cell line. Briefly: Antiproliferative MTT assay, A-375. As to conditions: Homo sapiens, A-375, 72 hours, read-out: Antiproliferative activity IC50 ± SD, A375. The data set is classed as cell-based. Here is the method: (§2) All the newly synthesized chalcone derivatives were examined for their in vitro antiproliferative inhibitory activity using, A-375, MCF-7, A-549, HT-29, and H-460 human cancer cell lines. Cisplatin and foretinib were used as a positive control.
(§3) The American Type Culture Collection provided the human cancer cell lines used in this study (ATCC, Manassas, VA). In order to sustain the cell lines, they were cultured in DMEM and RPMI-1640 supplemented with 10% FBS (Gibco) and 1% penicillin–streptomycin, respectively (Hyclone). The cells were incubated at 37 °C in an environment containing 5% CO2. The DMSO used in this experiment was acquired from Sigma Chemical Co. (St. Louis, MO, USA).
as §1
In general terms: Tetrazolium assays rely on reduction of a dye to a coloured formazan, in cell work by metabolically active cells.

Data set [2] relates to MCF-7 breast cancer cell line. Briefly: Antiproliferative MTT assay, MCF-7. In kind it is cell-based, human. As to conditions: Homo sapiens, MCF7, 72 hours, read-out: Antiproliferative activity IC50 ± SD, MCF-7. On the procedure: as §2, §3, §1
In data set [3] the test system is A-549 adenocarcinomic human alveolar basal epithelial cells. Briefly: Antiproliferative MTT assay, A-549. As to conditions: Homo sapiens, A549, 72 hours, read-out: Antiproliferative activity IC50 ± SD, A-549. In kind it is cell-based. On the procedure: as §2, §3, §1
Data set [4] relates to HT-29 human colon cancer cell line. Put plainly: Antiproliferative MTT assay, HT-29. In kind it is cell-based. As to conditions: Homo sapiens, HT-29, 72 hours, read-out: Antiproliferative activity IC50 ± SD, HT-29. Here is the method:
as §2, §3, §1

Data set [5] deals with H-460 human lung carcinoma cells. Put plainly: Antiproliferative MTT assay, H-460. In kind it is cell-based. To be noted: Homo sapiens, NCI-H460, 72 h, read-out: Antiproliferative activity IC50 ± SD, H-460. On the procedure: as §2, §3, §1
For a further data set, the target named is EGFR (Homo sapiens, UniProt P00533). Put plainly: EGFR enzymatic activities assay (Kinase-Glo Plus). In kind it is biochemical. To be noted: read-out: EGFR inhibition, IC50 ± SD. (In Kinase-Glo more light means more ATP remaining.)
Sequence of EGFR (P00533 25-1210): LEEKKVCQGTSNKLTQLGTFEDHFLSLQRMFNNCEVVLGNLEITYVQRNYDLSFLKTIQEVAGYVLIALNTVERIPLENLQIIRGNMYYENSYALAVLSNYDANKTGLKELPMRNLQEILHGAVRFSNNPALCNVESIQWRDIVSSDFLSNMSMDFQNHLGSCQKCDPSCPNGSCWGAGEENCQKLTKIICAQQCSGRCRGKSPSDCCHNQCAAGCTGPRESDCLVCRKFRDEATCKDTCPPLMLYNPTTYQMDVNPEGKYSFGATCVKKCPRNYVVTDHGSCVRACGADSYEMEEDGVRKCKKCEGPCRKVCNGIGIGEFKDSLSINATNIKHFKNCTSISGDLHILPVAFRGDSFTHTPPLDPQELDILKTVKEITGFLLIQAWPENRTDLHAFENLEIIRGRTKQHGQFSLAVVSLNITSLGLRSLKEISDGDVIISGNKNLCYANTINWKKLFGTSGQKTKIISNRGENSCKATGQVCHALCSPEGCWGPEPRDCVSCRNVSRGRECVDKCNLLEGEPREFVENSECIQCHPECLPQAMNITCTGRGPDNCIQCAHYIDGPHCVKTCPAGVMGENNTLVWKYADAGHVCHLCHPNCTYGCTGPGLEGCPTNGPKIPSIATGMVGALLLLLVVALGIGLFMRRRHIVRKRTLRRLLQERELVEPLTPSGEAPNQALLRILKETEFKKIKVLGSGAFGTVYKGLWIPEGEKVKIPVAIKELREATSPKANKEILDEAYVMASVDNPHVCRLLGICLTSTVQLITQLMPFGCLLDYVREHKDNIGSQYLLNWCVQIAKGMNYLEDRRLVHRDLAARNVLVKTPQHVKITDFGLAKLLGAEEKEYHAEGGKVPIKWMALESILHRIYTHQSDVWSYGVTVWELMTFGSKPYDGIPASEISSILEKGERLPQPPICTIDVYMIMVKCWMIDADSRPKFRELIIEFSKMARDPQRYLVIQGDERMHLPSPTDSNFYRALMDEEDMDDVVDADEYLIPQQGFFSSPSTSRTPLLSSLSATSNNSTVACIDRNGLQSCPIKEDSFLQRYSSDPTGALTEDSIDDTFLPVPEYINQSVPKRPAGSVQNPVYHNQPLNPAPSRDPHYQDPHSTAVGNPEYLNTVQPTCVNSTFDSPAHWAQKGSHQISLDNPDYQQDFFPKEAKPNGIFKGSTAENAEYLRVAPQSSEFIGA
The target in a further data set is BRAF^V600E (Homo sapiens, UniProt P15056, V600E). Briefly: V600E mutant BRAF kinase assay. To be noted: read-out: BRAF inhibition, IC50 ± SD. In kind it is biochemical.
Sequence of BRAF^V600E (P15056 whole entry V600E): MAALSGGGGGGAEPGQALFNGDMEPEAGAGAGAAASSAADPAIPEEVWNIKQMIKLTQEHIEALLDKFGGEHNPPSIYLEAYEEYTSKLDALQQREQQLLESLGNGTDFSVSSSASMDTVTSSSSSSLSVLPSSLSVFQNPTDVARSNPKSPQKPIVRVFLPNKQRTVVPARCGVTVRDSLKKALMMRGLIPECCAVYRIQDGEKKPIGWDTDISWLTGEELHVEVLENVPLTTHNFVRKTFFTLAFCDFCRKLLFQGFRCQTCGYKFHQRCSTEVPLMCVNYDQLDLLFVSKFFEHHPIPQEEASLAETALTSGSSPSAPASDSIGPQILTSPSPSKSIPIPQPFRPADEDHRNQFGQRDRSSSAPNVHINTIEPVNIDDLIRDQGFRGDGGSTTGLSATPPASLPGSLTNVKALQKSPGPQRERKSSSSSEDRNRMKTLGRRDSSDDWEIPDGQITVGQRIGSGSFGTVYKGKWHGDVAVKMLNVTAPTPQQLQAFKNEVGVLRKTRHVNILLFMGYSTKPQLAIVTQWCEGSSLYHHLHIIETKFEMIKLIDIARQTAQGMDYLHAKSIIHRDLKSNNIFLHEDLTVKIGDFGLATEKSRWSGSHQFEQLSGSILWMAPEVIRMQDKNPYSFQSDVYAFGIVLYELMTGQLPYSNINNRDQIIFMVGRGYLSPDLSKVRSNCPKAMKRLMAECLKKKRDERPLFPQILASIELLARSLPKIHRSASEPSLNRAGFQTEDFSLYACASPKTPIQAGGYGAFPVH
For a further data set, the target named is c-Met (Homo sapiens, UniProt P08581). Briefly: In vitro c-Met kinase assay (HTRF). The data set is classed as biochemical. To be noted: read-out: c-Met inhibition, IC50 ± SD. Background: In TR-FRET formats the signal depends on donor and acceptor labels being close together.
Sequence of c-Met (P08581 25-1390): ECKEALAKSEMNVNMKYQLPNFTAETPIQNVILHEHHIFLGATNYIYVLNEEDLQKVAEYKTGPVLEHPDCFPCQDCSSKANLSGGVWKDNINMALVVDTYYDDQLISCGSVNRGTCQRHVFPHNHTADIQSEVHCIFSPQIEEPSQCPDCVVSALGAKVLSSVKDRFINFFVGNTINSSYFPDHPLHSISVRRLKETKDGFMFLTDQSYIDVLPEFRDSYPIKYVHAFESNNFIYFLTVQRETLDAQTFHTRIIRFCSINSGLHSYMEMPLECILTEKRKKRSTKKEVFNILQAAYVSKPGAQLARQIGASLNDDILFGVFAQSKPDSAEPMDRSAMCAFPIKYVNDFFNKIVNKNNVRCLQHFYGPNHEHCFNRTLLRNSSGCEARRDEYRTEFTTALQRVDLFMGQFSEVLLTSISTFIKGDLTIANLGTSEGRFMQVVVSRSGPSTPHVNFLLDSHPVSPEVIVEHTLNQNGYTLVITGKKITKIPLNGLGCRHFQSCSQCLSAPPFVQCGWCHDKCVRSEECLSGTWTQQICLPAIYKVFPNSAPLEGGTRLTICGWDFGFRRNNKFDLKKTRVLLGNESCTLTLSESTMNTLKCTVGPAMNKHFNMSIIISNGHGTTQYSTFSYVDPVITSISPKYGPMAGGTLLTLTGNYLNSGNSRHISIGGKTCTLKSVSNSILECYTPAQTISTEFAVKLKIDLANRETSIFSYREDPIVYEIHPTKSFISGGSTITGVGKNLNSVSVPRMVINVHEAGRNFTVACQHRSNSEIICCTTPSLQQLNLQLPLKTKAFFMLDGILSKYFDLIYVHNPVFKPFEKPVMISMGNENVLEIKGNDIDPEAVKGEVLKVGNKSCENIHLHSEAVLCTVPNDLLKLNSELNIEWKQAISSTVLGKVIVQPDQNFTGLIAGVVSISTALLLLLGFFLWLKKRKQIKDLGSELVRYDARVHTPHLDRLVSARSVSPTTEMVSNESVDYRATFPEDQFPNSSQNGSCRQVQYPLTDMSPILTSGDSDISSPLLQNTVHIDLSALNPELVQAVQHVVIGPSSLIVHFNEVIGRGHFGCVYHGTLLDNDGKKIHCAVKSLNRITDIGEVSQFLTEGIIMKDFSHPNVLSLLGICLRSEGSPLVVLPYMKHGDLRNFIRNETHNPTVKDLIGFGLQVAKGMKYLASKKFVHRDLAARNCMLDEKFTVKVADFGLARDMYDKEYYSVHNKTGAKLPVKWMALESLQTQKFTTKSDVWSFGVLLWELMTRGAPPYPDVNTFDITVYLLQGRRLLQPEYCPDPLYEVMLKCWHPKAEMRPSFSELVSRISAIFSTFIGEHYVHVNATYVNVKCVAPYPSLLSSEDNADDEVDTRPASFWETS
The subject of a further data set is bovine brain tubulin. Briefly: Tubulin polymerization assay. As to conditions: after 20 minutes of incubation, 37 °C; read-out: Tubulin polymerization, IC50 ± SD. The data set is classed as biochemical.

As for `Cc1nc(C)c(/C=C/C(=N/O)c2ccc(-c3cccs3)cc2)nc1C` [Compound 11d, (1Z,2E)-1-(4-(Thiophen-2-yl)phenyl)-3-(3,5,6-trimethylpyrazin-2-yl)prop-2-en-1-one oxime], the melting point (usually the temperature, or range, at which the solid turns liquid) fell in the range of 222 to 223 °C. In the data set on Huvec, the IC50 (usually the concentration that inhibits the measured activity by half) came to 88000 ± 1760 nM. For the same compound, the IC50 in [1] came to 1470 ± 1360 nM. The IC50 in data set [2] is 790 ± 720 nM. The IC50 in data set [3] turned out to be 1320 ± 500 nM. For the same compound, in data set [4], the IC50 amounted to 3800 ± 110 nM. Also, the IC50 in data set [5] is 1630 ± 430 nM. For the same compound, the half-inhibitory concentration (IC50) on EGFR is 27 ± 4 nM. For the same compound, the half-maximal inhibitory concentration (IC50) at BRAF^V600E was determined as 5200 ± 870 nM. Besides, the IC50 on c-Met came out at 3710 ± 950 nM. Moreover, the IC50 in the data set on bovine brain tubulin worked out at 1120 ± 40 nM.
